According to patent publication US20120184542A1, “PYRIDO PYRIMIDINES” (priority 2011, published 2012):
Counter-ions that a name gives are not always drawn.

Key:
[1] = target: T1, Human DYRK1B (Homo sapiens, UniProt Q9Y463); assay: DYRK1B Kinase TR-FRET (IMAP-Tb) Assay; assay type: biochemical; conditions: TR-FRET (IMAP-Tb); ATP 70 μM; 37° C. 60 minutes; read-out: Enzyme IC50 (μM) DYRK1B
T1 construct: purchased Invitrogen PR8350B (former PV4649)

[2] = target: T2, Human DYRK1A (Homo sapiens, UniProt Q13627); assay: DYRK1A Kinase TR-FRET (IMAP-Tb) Assay; assay type: biochemical; conditions: TR-FRET (IMAP-Tb); ATP 70 μM; 37° C. 60 minutes; read-out: Enzyme IC50 (μM) DYRK1A
T2 construct: purchased Invitrogen PV3997
How it was run: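 Recombinant human DYRK1A phosphorylated fluorescent substrate peptide (1.0 μM) with ATP in 10 mM HEPES pH 7.0, 50 mM NaCl, 5 mM MgCl2, 1 mM DTT, 1 mM NaVO4, 0.02% BSA for 60 min at 37 °C. Phosphopeptide detected by IMAP terbium TR-FRET; IC50 reported.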

[3] = test system: SW620 human colon cancer cells; assay: SW620 Cell Viability Assay; assay type: cell-based; conditions: Homo sapiens, SW-620, 96 h, CellTiter-Glo; 4 days incubation; read-out: Cellular EC50 (μM) SW620
How it was run: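 SW620 human colon cancer cells, some attached 24 h then serum-starved 48 h before dosing; compounds prepared in serum-supplemented medium. Cells incubated with compound 4 days at 37 °C, 5% CO2, and viability measured by CellTiter-Glo luminescence.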

T1 sequence (Q9Y463 whole entry): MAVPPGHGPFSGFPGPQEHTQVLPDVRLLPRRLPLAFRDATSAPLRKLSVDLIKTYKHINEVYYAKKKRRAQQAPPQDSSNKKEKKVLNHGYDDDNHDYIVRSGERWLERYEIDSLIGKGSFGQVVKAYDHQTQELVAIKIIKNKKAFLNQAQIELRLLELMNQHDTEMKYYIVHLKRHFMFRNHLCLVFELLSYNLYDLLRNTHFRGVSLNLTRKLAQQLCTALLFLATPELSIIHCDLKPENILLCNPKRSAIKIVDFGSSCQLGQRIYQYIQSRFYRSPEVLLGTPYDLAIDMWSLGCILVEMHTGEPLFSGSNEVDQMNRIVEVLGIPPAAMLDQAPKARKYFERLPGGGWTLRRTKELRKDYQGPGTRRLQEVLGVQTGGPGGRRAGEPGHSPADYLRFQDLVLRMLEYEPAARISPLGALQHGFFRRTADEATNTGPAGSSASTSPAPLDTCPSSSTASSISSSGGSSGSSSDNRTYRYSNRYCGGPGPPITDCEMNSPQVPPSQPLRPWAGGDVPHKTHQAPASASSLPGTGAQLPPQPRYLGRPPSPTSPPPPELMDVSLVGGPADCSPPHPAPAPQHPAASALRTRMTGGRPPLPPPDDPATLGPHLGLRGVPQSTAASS

CC1(C)OCC(CNc2ncc3cc(C(=O)Nc4cc(C(=O)NCc5cccc(Cl)c5)ccc4Cl)c(=O)[nH]c3n2)O1 (stereo not drawn) [Example 124, N-(2-Chloro-5-(3-chlorobenzylcarbamoyl)phenyl)-2-((2,2-dimethyl-1,3-dioxolan-4-yl)methylamino)-7-oxo-7,8-dihydropyrido[2,3-d]pyrimidine-6-carboxamide]
IC50 [1]: 0.107 µM
IC50 [2]: 0.113 µM
EC50 [3]: > 10 µM

O=C(NCc1cccc(Cl)c1)c1ccc(Cl)c(NC(=O)c2cc3cnc(NC4CCNCC4)nc3[nH]c2=O)c1 [Example 125, N-(2-Chloro-5-(3-chlorobenzylcarbamoyl)phenyl)-7-oxo-2-(piperidin-4-ylamino)-7,8-dihydropyrido[2,3-d]pyrimidine-6-carboxamide hydrochloride]
IC50 [1]: 0.206 µM
IC50 [2]: 0.0303 µM
EC50 [3]: 1.5 µM

O=C(NCc1cccc(Cl)c1)c1ccc(Cl)c(NC(=O)c2cc3cnc(NCC(O)CO)nc3[nH]c2=O)c1 (stereo not drawn) [Example 126, N-(2-Chloro-5-(3-chlorobenzylcarbamoyl)phenyl)-2-(2,3-dihydroxypropylamino)-7-oxo-7,8-dihydropyrido[2,3-d]pyrimidine-6-carboxamide]
IC50 [1]: 0.059 µM
IC50 [2]: 0.0197 µM
EC50 [3]: > 10 µM

CC(C)(O)CNc1ncc2cc(C(=O)Nc3cc(C(=O)NCc4cccc(Cl)c4)ccc3Cl)c(=O)[nH]c2n1 [Example 127, N-(2-Chloro-5-(3-chlorobenzylcarbamoyl)phenyl)-2-(2-hydroxy-2-methylpropylamino)-7-oxo-7,8-dihydropyrido[2,3-d]pyrimidine-6-carboxamide]
IC50 [1]: 0.086 µM
IC50 [2]: 0.0223 µM
EC50 [3]: 0.165 µM

COc1ncc2cc(C(=O)Nc3cc(C(=O)N[C@@H](CN)c4cccc(Cl)c4)ccc3Cl)c(=O)[nH]c2n1 [Example 134, 2-Methoxy-7-oxo-7,8-dihydro-pyrido[2,3-d]pyrimidine-6-carboxylic acid {5-[(R)-2-amino-1-(3-chloro-phenyl)-ethylcarbamoyl]-2-chloro-phenyl}-amide]
IC50 [1]: 1.98 µM
IC50 [2]: 0.481 µM
EC50 [3]: 7.57 µM

COc1ncc2cc(C(=O)Nc3cc(C(=O)N[C@H](CN)c4cccc(Cl)c4)ccc3Cl)c(=O)[nH]c2n1 [Example 135, 2-Methoxy-7-oxo-7,8-dihydro-pyrido[2,3-d]pyrimidine-6-carboxylic acid {5-[(S)-2-amino-1-(3-chloro-phenyl)-ethylcarbamoyl]-2-chloro-phenyl}-amide]
IC50 [1]: 0.0457 µM
IC50 [2]: 0.0109 µM
EC50 [3]: 0.523 µM

NCC(NC(=O)c1ccc(Cl)c(NC(=O)c2cc3cnc(N4CCC(N)CC4)nc3[nH]c2=O)c1)c1ccccc1 (stereo not drawn) [Example 138, N-(5-(2-Amino-1-phenylethylcarbamoyl)-2-chlorophenyl)-2-(4-aminopiperidin-1-yl)-7-oxo-7,8-dihydropyrido[2,3-d]pyrimidine-6-carboxamide hydrochloride]
IC50 [1]: 0.0319 µM
IC50 [2]: 0.0184 µM
EC50 [3]: 2.9 µM

CN1CCN(CCNc2ncc3cc(C(=O)Nc4cc(C(=O)NC(CN)c5ccccc5)ccc4Cl)c(=O)[nH]c3n2)CC1 (stereo not drawn) [Example 139, N-(5-(2-Amino-1-phenylethylcarbamoyl)-2-chlorophenyl)-2-(2-(4-methylpiperazin-1-yl)ethylamino)-7-oxo-7,8-dihydropyrido[2,3-d]pyrimidine-6-carboxamide hydrochloride]
IC50 [1]: 0.019 µM
IC50 [2]: 0.006 µM
EC50 [3]: 0.396 µM

CSc1ncc2cc(C(=O)Nc3cc(C(=O)NC(CO)c4ccccc4)ccc3Cl)c(=O)[nH]c2n1 (stereo not drawn) [Example 140, N-(2-Chloro-5-(2-hydroxy-1-phenylethylcarbamoyl)phenyl)-2-(methylthio)-7-oxo-7,8-dihydropyrido[2,3-d]pyrimidine-6-carboxamide]
IC50 [1]: 0.17 µM
IC50 [2]: 0.073 µM
EC50 [3]: 3.07 µM

CSc1ncc2cc(C(=O)Nc3cc(C(=O)NC(CCO)c4ccccc4)ccc3Cl)c(=O)[nH]c2n1 (stereo not drawn) [Example 141, N-(2-Chloro-5-(3-hydroxy-1-phenylpropylcarbamoyl)phenyl)-2-(methylthio)-7-oxo-7,8-dihydropyrido[2,3-d]pyrimidine-6-carboxamide]
IC50 [1]: 0.12 µM
IC50 [2]: 0.101 µM
EC50 [3]: 2.39 µM

NC1CCN(c2ncc3cc(C(=O)Nc4cc(C(=O)NC(CO)c5ccccc5)ccc4Cl)c(=O)[nH]c3n2)CC1 (stereo not drawn) [Example 147, 2-(4-Aminopiperidin-1-yl)-N-(2-chloro-5-(2-hydroxy-1-phenylethylcarbamoyl)phenyl)-7-oxo-7,8-dihydropyrido[2,3-d]pyrimidine-6-carboxamide hydrochloride]
IC50 [1]: 0.483 µM
IC50 [2]: 0.194 µM
EC50 [3]: 1.44 µM

NC1CCN(c2ncc3cc(C(=O)Nc4cc(C(=O)NC(CCO)c5ccccc5)ccc4Cl)c(=O)[nH]c3n2)CC1 (stereo not drawn) [Example 148, 2-(4-Aminopiperidin-1-yl)-N-(2-chloro-5-(3-hydroxy-1-phenylpropylcarbamoyl)phenyl)-7-oxo-7,8-dihydropyrido[2,3-d]pyrimidine-6-carboxamide hydrochloride]
IC50 [1]: 0.321 µM
IC50 [2]: 0.15 µM
EC50 [3]: 0.069 µM

NCC(NC(=O)c1ccc(Cl)c(NC(=O)c2cc3cncnc3[nH]c2=O)c1)c1ccccc1 (stereo not drawn) [Example 151, N-(5-(2-Amino-1-phenylethylcarbamoyl)-2-chlorophenyl)-7-oxo-7,8-dihydropyrido[2,3-d]pyrimidine-6-carboxamide hydrochloride]
IC50 [1]: 0.096 µM
IC50 [2]: 0.061 µM
EC50 [3]: 4.26 µM

NCCC(NC(=O)c1ccc(Cl)c(NC(=O)c2cc3cncnc3[nH]c2=O)c1)c1ccccc1 (stereo not drawn) [Example 152, N-(5-(3-Amino-1-phenylpropylcarbamoyl)-2-chlorophenyl)-7-oxo-7,8-dihydropyrido[2,3-d]pyrimidine-6-carboxamide hydrochloride]
IC50 [1]: 0.033 µM
IC50 [2]: 0.066 µM
EC50 [3]: 2.68 µM

COc1ncc2cc(C(=O)Nc3cc(C(=O)N[C@H](CCO)c4ccccc4)ccc3Cl)c(=O)[nH]c2n1 [Example 158, (R)—N-(2-Chloro-5-(3-hydroxy-1-phenylpropylcarbamoyl)phenyl)-2-methoxy-7-oxo-7,8-dihydropyrido[2,3-d]pyrimidine-6-carboxamide]
IC50 [1]: 0.082 µM
IC50 [2]: 0.037 µM
EC50 [3]: 1.71 µM

NCCC(NC(=O)c1cc(NC(=O)c2cc3cnc(N4CCOCC4)nc3[nH]c2=O)c(Cl)cc1F)c1cccc(Cl)c1 (stereo not drawn) [Example 160, 2-Morpholin-4-yl-7-oxo-7,8-dihydro-pyrido[2,3-d]pyrimidine-6-carboxylic acid {5-[3-amino-1-(3-chloro-phenyl)-propylcarbamoyl]-2-chloro-4-fluoro-phenyl}-amide]
IC50 [1]: 0.0932 µM
IC50 [2]: 0.0532 µM
EC50 [3]: 0.219 µM

O=C(NCc1cccc(F)c1)c1ccc(Cl)c(NC(=O)c2cc3cnc(N4CCOCC4)nc3[nH]c2=O)c1 [Example 161, 2-Morpholin-4-yl-7-oxo-7,8-dihydro-pyrido[2,3-d]pyrimidine-6-carboxylic acid [2-chloro-5-(3-fluoro-benzylcarbamoyl)-phenyl]-amide]
IC50 [1]: 0.0472 µM
IC50 [2]: 0.0462 µM
EC50 [3]: > 10 µM

O=C(NCc1cccc(F)c1)c1cc(NC(=O)c2cc3cnc(N4CCOCC4)nc3[nH]c2=O)c(Cl)cc1F [Example 162, 2-Morpholin-4-yl-7-oxo-7,8-dihydro-pyrido[2,3-d]pyrimidine-6-carboxylic acid [2-chloro-4-fluoro-5-(3-fluoro-benzylcarbamoyl)-phenyl]-amide]
IC50 [1]: 0.135 µM
IC50 [2]: 0.0432 µM
EC50 [3]: > 10 µM
